Results from article PMC12587601 (Antimicrobial Agents and Chemotherapy, 2025).
Marks after values point to notes of the source that are not given here.

Experiments:
[1] = Covariate effects forest plot of simulated ritonavir AUC0–24 h (1,000 simulations accounting for parameter uncertainty); set-up: species or system African children with HIV; conditions: reference a child of 26 kg receiving 100 mg of ritonavir in combination with darunavir
Experimental: (§1) Covariates were maintained if they reached statistical significance of P < 0.05 on forward addition and P < 0.01 on backward elimination. […] The performance of intermediate and final models was assessed both numerically and using goodness of fit plots, and by simulation-based diagnostics such as visual predictive checks (VPC) ([23]). Parameter precision was evaluated using the sampling importance resampling (SIR) procedure ([24]). The effect of covariates on the simulated area under the curve from 0 to 24 hours (AUC0–24 h) for all study arms was visualized using a forest plot based on 1,000 simulations accounting for parameter uncertainty ([25]).

[2] = Population pharmacokinetic analysis of ritonavir plasma concentrations (CHAPAS-4 pharmacokinetic sub-study, week 6, NONMEM)
Experimental: The trial included children with HIV from Zambia, Uganda, and Zimbabwe, aged 3–15 years, weighing at least 14 kg (Table 1), receiving abacavir-, zidovudine-, or stavudine-containing NRTI backbone and failing on ART according to WHO criteria (confirmed viral load >1,000 copies/mL after adherence counseling or CD4 criteria for failure or clinical criteria for failure). A nested pharmacokinetic sub-study was conducted within the CHAPAS-4 trial. […] Written informed consent was given by parents/caregivers, and local and national ethics committees approved the main trial and nested pharmacokinetic sub-study.
The dose depended on the companion PI (Table 2). NRTI backbones were also dosed according to weight bands. Children were followed up for 96 weeks. Pharmacokinetic blood samples were collected after week 6 of study treatment. Samples were collected at pre-dose, 0.5 (only for those on TAF/FTC), 1, 2, 4, 6, 8, 12, and 24 hours post-dose, and plasma was stored at −80°C. On the day of pharmacokinetic blood sampling, study drugs were administered under direct observation, with food (breakfast with 5% fat, ~250 kCal). All non-ART co-medications were taken at least 2 hours after study drugs.
R v4.2.2 via RStudio (Posit Public Benefit Corporation) and Pirana v2.9.9 (Certara, Inc.) were utilized to visualize and process the data, and Perl Speaks NONMEM v5.2.6 (Department of Pharmacy, Uppsala University) was used for automation of the analysis processes ([17]).
We tested one- and two-compartment disposition models and several absorption models (sequential zero- and/or first-order, with lag time or transit compartments). Simple first-order elimination as well as first-pass and saturable elimination through a liver compartment were tested. We included between-subject variability (BSV) on disposition parameters and between-occasion variability (BOV) on absorption parameters, assuming a log-normal distribution. Combined additive and proportional error models to describe residual unexplained variability were evaluated. Samples with undetectable drug concentrations were treated as censored at the limit of detection (LOD), which was imputed as 30% of the LLOQ ([19]), and handled using a modified version of the M6 method by Beal ([20]). The undetectable (i.e., censored) values were imputed to half of the LOD value (LOD/2), and the additive error was inflated by LOD/2. If a series of undetectable values was present, the value closest to the peak concentration was retained, while all trailing values were excluded from the model fit but retained for simulation-based diagnostics.
as §1

[3] = set-up: method as in PMID 19210693; conditions: cross-over pharmacokinetic study; cited from earlier work

Q: For CC(C)c1nc(CN(C)C(=O)N[C@H](C(=O)N[C@@H](Cc2ccccc2)C[C@H](O)[C@H](Cc2ccccc2)NC(=O)OCc2cncs2)C(C)C)cs1 [ritonavir], which “Increase of ritonavir AUC0–24 h by atazanavir” value [1] is on record?
A: The value was 99.0%.

Q: What about the “Observed Cmax of ritonavir, median (interquartile range)” value (from here on “Observed Cmax of ritonavir, median”) ([2]; atazanavir/ritonavir once daily, weight band 14–19.9 kg, ATV/r 200/75 mg, 3 out of 12 children got 100 mg ritonavir instead of 75 mg) of the same compound?
A: Its value is 2.68 (2.33–3.25)^a mg/L.

Q: What about the “Observed Cmax of ritonavir, median” value ([2]; darunavir/ritonavir once daily, weight band 20–24.9 kg, DRV/r 600/100 mg) of the same compound?
A: The value was 1.27 (1.10–1.52) mg/L.

Q: And the “Observed Cmax of ritonavir, median” value ([2]; darunavir/ritonavir once daily, weight band ≥35 kg, DRV/r 800/100 mg)?
A: The value was 0.81 (0.53–1.04) mg/L.

Q: And the “Between-occasion variability, Bioavailability” value ([2]; human, in vivo)?
A: The value was 40.1 (35.2–46.0) %.

Q: What about the “Between-occasion variability, First-order absorption rate constant” value ([2]; human, in vivo) of the same compound?
A: The value was 114 (90.0–141) %.

Q: What about the “Between-occasion variability, Lag time” value ([2]; human, in vivo) of the same compound?
A: The value was 62.0 (54.5–70.2) %.

Q: What about the “Between-occasion variability, Zero-order rate of absorption” value ([2]; human, in vivo) of the same compound?
A: Its value is 52.5 (42.7–63.0) %.

Q: What about the “Between-subject variability, Clearance” value ([2]; human, in vivo) of the same compound?
A: Its value is 13.1 (10.2–15.8) %.

Q: And the “Extra variability for unobserved doses” value ([2]; human, in vivo)?
A: Its value is 2.14 (1.53–2.42) fold change.

Q: And the “First-order absorption rate constant, typical value (95% confidence interval)” value ([2]; human, in vivo)?
A: Its value is 1.16 (0.893–1.89) 1/h.

Q: And the “Lag time, typical value (95% confidence interval)” value ([2]; human, in vivo)?
A: The value was 0.981 (0.934–1.06) h.

Q: And the “Zero-order absorption duration, typical value (95% confidence interval)” value ([2]; human, in vivo)?
A: The value was 2.45 (2.05–2.80) h.

Q: What about the “Central volume of distribution, typical value (95% confidence interval)” value ([2]; human, in vivo, po) of the same compound?
A: The value was 54.5 (48.9–60.4) L.

Q: What about the “Clearance, typical value (95% confidence interval)” value ([2]; human, in vivo, po) of the same compound?
A: The value was 10.5 (9.22–11.9) L/h.

Q: And the Cmax ([2]; human, in vivo, po)?
A: The Cmax was 1320 ng/mL.

Q: And the “Intercompartmental clearance, typical value (95% confidence interval)” value ([2]; human, in vivo, po)?
A: The value was 1.19 (0.851–1.58) L/h.

Q: And the “Peripheral volume of distribution, typical value (95% confidence interval)” value ([2]; human, in vivo, po)?
A: The value was 134 (38.8–330) L.

Q: And the Cmax ([2]; human, in vivo, po, 100 mg, Observed Cmax of ritonavir, median (interquartile range))?
A: Its Cmax is 2760 ng/mL.

Q: What about the “Model-based AUC0–24 h of ritonavir, median (interquartile range)” value ([2]; lopinavir/ritonavir twice daily, weight band 20–24.9 kg, daily dose LPV/r 400/100 mg) of the same compound?
A: The value was 10.3 (7.30–12.8) mg·h/L.

Q: And the “Observed Cmax of ritonavir, median” value ([2]; lopinavir/ritonavir twice daily, weight band ≥35 kg, daily dose LPV/r 800/200 mg)?
A: The value was 0.80 (0.47–1.42) mg/L.

Q: What about the “Lowering of plasma AUC of ritonavir by darunavir” value [3] of the same compound?
A: The value was 14%.
